Data: patent publication US6677310B1, “Ring-expanded nucleosides and nucleotides” (Nabi, priority 1999, dated 2004)

Tests used:
[1] = test system: NCI-H522; assay type: cell-based, human; conditions: NCI-H522 (Non-Small Cell Lung Cancer), 48 h
[2] = target: T1, bacteriophage T7 RNA polymerase (Escherichia phage T7, UniProt P00573); assay: Transcription catalyzed by T7 RNA polymerase; assay type: biochemical
T1 construct: purchased Promega P2075
Method: To show whether the “fat” nucleotide Compound 15-2 (FNTP) is incorporated into RNA during transcription, experiments were performed using bacteriophage T7 RNA polymerase (RNAP) and a synthetic 42-mer DNA template shown below that is annealed to a 17-nucleotide promoter specific for T7 RNAP. This promoter-template enables the synthesis of 25-mer RNA, and the purine analogue may be incorporated in positions +1, +11, +13, +15, +21, +22, and +23.
Transcription reaction conditions were optimized with the use of ^32P CTP for labeling RNA transcripts. Polyacrylimide gel electrophoresis of the transcription products obtained from the 42-mer template, using 1 mM each of four natural NTPs, reveled a 25-mer RNA as the major product, together with shorter and longer labeled transcripts (FIG. 9, lane 1). The additional bands observed are consistent with the known ability of T7 RNA polymerase to add non-coded residues at the 3′-end of transcripts. (Milligan, J. F., et al., Nuc. Acids Res., 15, 8783-8798, 1987) With the use of 1 mM nucleotide Compound 15-2 (FNTP), the yield of transcription was reduced (lane 2).
With the use of a synthetic 37-mer DNA template, annealed to a 17-nucleotide promoter for T7 RNAP as shown below, a 20 nucleotide-long transcript RNA was obtained when the reaction mixture contained all four NTPs in appropriate concentrations, along with many shorter “abortive” fragments. (Milligan, J. F., et al., Nuc. Acids Res., 15, 8783-8798, 1987). For the reaction with modified nucleotide, typically
the concentration of the appropriate natural nucleotide was reduced. […] (Milligan, J. F., et al., Methods in Enzymol., 180, 51-63, 1989.) In the present experiments, the synthesis of RNA was compared under standard conditions (using 4 NTPs in 0.2 mM concentration each) with the synthesis of RNA by using an additional “fat” nucleoside triphosphate Compound 15-2 (FNTP) in varying (0.05-10 mM) concentrations. The reaction mixtures were incubated at 37° C. for 2 hours, and the products were denatured in a buffer containing urea. The products were separated by 20% polyacrylamide-urea gel electrophoresis and visualized by autoradiography.
Transcription samples (total volume 10 μL contained: 40 mM Tris-HCl pH 8.1 with 6 mM MgCl2, 5 mM dithiothreitol (DTT), 1 mM spermidine, 0.01% Triton-X 100, 50 μg/mL bovine serum albumin, 250 nM synthetic DNA template with a promotor for T7 RNAP, 4 units of T7 RNA polymerase, and 0.2 mM ribonucleoside triphosphates. A single α^32P-labeled NTP was added for labeling (typicallly 1 μL of 10 mCi/mL ). Inhibition assays were monitored with varying concentrations (0.05-10 mM) of nucleotide Compound 15-2. Polyacrylamide gel (20%) electrophoresis was performed on slab gels (18 cm×16 cm, or 35 cm×44 cm) containing 8M urea. […]

[3] = target: T2, adenosine deaminase from calf intestinal mucosa (Bos taurus, UniProt P56658); assay: Adenosine deaminase assay (Example 17); assay type: biochemical; conditions: Lineweaver-Burk plots; with and without preincubation
T2 construct: against adenosine deaminase from calf intestinal mucosa; from tissue; host or cells: calf intestinal mucosa
T2 sequence (P56658 whole entry): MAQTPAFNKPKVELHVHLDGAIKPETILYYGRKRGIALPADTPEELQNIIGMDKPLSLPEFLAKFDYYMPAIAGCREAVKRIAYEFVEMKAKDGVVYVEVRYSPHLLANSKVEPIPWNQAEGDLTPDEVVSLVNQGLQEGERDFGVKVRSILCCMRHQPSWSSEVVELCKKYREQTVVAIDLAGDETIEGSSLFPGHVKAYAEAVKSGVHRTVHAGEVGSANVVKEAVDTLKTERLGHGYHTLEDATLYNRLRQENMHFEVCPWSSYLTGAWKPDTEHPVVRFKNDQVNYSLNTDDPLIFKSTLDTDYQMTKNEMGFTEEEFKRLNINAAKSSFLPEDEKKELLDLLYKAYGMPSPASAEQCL
Method: Inhibition of adenosine deaminase (ADA) by Compound 17-1 and Compound 17-2 (see FIG. 13 for chemical structures; note that structure 1 FIG. 13 is the same as that in figure except that it is written in an anti-conformation in the former) was investigated in vitro against adenosine deaminase from calf intestinal mucosa in a 50 mM phosphate buffer (pH=7.4) at 25° C., by spectro-photometrically monitoring the rate of hydrolysis of substrate adenosine at 265 nm. Stock solutions of the substrate, enzyme, and inhibitors were prepared using a 50 mM phosphate buffer (pH 7.4). The enzyme kinetics was followed by measuring the change in optical density (decrease in absorbance) per minute of the substrate adenosine. By keeping the concentration of the inhibitor constant, and by varying the substrate concentration, a set of kinetic data was obtained. Additional sets of data were generated using different concentrations of the inhibitor. […]
(a) pre-incubation of the enzyme with the inhibitor; here the enzyme (ADA 10 μL) and inhibitor were preincubated for 10 min in a calculated amount of phosphate buffer (50 mM, pH 7.5 ) at 25° C. and the reaction was initiated by the addition of substrate, adenosine, and (b) without preincubation; here the reaction was started by addition of ADA (10 μL) to a mixture of adenosine and inhibitor in the phosphate buffer at 25° C. […]

[4] = target: T3, guanine deaminase (guanase) from rabbit liver (Oryctolagus cuniculus, UniProt G1T386); assay: Guanine deaminase assay (Example 17); assay type: biochemical; conditions: Lineweaver-Burk plots
T3 construct: from tissue; host or cells: rabbit liver
T3 sequence (G1T386 1-454): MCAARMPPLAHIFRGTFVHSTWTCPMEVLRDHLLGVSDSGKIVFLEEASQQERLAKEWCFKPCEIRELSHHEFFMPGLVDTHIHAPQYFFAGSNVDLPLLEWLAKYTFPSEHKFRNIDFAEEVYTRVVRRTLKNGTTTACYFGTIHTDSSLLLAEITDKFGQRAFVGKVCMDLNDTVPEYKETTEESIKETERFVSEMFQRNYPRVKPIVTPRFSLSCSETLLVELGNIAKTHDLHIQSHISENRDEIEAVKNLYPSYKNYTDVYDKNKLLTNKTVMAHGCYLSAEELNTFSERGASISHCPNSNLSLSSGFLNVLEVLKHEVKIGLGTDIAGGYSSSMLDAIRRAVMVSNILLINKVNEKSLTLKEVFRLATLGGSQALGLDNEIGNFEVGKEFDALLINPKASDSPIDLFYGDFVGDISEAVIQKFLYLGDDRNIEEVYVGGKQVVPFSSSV
Method: Stock solutions of the substrate, enzyme, and inhibitors were prepared using a 50 mM Tris-HCl buffer (pH 7.4). The enzyme kinetics was followed by measuring the change in optical density (decrease in absorbance) per minute of the substrate guanine. By keeping the concentration of the inhibitor constant, and by varying the substrate concentration, a set of kinetic data was obtained. Additional sets of data were generated using different concentrations of the inhibitor. The substrate concentration in each assay ranged 6-20 μM; a total of six different concentrations were employed. The inhibitor concentration used in each assay was 30 or 40 μM. The amount of enzyme used in each assay was 0.0076 unit. The Ki for inhibition assays was computed from Lineweaver-Burk plots. The Lineweaver-Burk plot (1/V vs 1/[S]), as well as the linear regression analysis of kinetic data, were performed using the program Quattro Pro (version 6.01) for Windows.™.

T1 sequence (P00573 whole entry): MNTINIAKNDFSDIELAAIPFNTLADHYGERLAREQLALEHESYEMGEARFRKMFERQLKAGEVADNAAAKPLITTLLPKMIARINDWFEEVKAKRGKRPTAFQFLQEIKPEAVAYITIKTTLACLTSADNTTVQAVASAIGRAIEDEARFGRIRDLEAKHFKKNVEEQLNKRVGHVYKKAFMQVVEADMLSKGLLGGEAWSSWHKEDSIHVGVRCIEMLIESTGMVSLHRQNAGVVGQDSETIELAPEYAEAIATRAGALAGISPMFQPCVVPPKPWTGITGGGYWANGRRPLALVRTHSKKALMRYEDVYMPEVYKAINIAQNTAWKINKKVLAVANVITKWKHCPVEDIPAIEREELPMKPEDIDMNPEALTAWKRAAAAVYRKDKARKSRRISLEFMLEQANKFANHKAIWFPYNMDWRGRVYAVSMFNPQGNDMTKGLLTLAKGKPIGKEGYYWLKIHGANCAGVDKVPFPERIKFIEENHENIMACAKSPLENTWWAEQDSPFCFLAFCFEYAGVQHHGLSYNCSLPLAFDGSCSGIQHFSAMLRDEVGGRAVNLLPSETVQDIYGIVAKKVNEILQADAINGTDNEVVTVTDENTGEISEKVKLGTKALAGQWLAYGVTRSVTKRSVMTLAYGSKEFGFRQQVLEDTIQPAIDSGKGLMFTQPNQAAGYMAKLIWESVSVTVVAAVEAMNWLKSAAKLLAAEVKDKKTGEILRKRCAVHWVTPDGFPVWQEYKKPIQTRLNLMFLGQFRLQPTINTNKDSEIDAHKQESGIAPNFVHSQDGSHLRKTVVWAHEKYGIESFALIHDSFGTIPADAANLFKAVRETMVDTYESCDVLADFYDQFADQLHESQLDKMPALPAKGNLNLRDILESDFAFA

Compound	GI50 [1]	TGI [1]	CC50 ([1]; read-out: LC50 (the source's name))	incorporation into RNA during transcription (substrate for T7 polymerase) ([2]; 42-mer DNA template)	inhibition of T7 RNA polymerase-catalyzed transcription ([2]; 42-mer and 37-mer DNA templates, 0.05-10 mM)	mode of inhibition of adenosine deaminase [3]	inhibition of guanine deaminase (guanase), mode [4]
N=c1[nH]c(=O)c2ncn([C@@H]3O[C@H](CO)[C@@H](O)[C@H]3O)c2c(=O)[nH]1 [Compound 14-1, 6-Imino-6H-1-β-D-ribofuranosyl-4,5,7,8-tetrahydroimidazo[4,5-e][1,3]diazepine-4,8-dione]	> 100 µM	>100 µM	> 100 µM				
N=c1nc(N)c2ncn([C@@H]3O[C@H](CO)[C@@H](O)[C@H]3O)c2c(N)n1 [Compound 14-2, 4,8-Diamino-6H-6-imino-1-β-D-ribofuranosylimidazo[4,5-e][1,3]diazepine]				neither incorporation nor inhibition	failed to cause inhibition of the transcription	competitive inhibitor	inactive
